Among the data in US20260216294A1, “BETA 2-ADRENERGIC RECEPTOR AGONISTS FOR TREATMENT OR PREVENTION OF MUSCLE WASTING” (ATROGI AB, priority 2023, published 2026) are Emax values, retold here.

Assay [1] has as its system L6-myotubes. The assay is described as follows: Glucose uptake in differentiated L6-myotubes (Biological Example 2). Particulars: read-out: Biological example 2 (GU). The format is cell-based. In short, it runs like this: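 Differentiated L6 myotubes were serum-starved overnight in 0.5% fatty-acid-free BSA and then stimulated with compound or isoprenaline at 1×10^−5 M final. After 1 h 40 min cells were washed and re-dosed in glucose-free medium. Twenty minutes later, uptake of 50 nM ^3H-2-deoxyglucose over 10 min was measured by scintillation counting of NaOH lysates.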

Assay [2] has as its system L6-myotubes. The assay is described as follows: Measurement of intracellular cAMP levels in differentiated L6-myotubes (Biological Example 3). The conditions noted are these: 0.25 h. The format is cell-based. In short, it runs like this: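 Serum-starved differentiated L6 myotubes stimulated 15 min with test compound at 1×10^−5 M final (isoprenaline as reference) in HBSS with 1% BSA, 5 mM HEPES, 1 mM IBMX, pH 7.4. Cells EtOH-extracted, lysed, and intracellular cAMP measured by AlphaScreen.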

[3] abbreviates: glucose uptake in differentiated L6-myotubes, compound at 10 μM, activity relative to isoproterenol at 10 μM.
Setting [4] is: intracellular cAMP in differentiated L6-myotubes, compound at 10 μM, activity relative to isoproterenol at 10 μM.
Where [5] appears, read: glucose uptake, compound at 10 μM relative to isoproterenol at 10 μM.
Where [6] appears, read: intracellular cAMP, compound at 10 μM relative to isoproterenol at 10 μM.

In the case of `CC(C)(CC[C@H]1CC[C@H](O)CC1)NC[C@H](O)c1ccccc1F` [Compound 319, (R)-2-{1,1-dimethyl-3-[(1r,4S)-4-hydroxycyclohexyl]propylamino}-1-(o-fluorophenyl)-1-ethanol], the Emax at 10 µM with L6-myotubes [1] (setting [3]) was greater than 75%; with L6-myotubes [2] (setting [4]) it was less than 25%.

For the molecule `CC1(C)CC[C@H]([C@H](O)c2cncc(F)c2)N1` [Compound 157, (R)-[(R)-5,5-dimethyl-2-pyrrolidinyl](5-fluoro-3-pyridyl)methanol], the Emax at 10 µM in the assay on L6-myotubes [1] (setting [5]) was greater than 75%; in the assay on L6-myotubes [2] (setting [6]) it was less than 25%.

`CC(=O)N[C@H]1CC[C@@H](CC(C)(C)NC[C@H](O)c2cccc(F)c2)CC1` [Compound 452]: the results for the Emax at 10 µM with L6-myotubes [1] (setting [3]) and with L6-myotubes [2] (setting [4]) were greater than 75% and less than 25%, respectively.

As to `CC1(C)CC[C@H]([C@@H](O)c2cccc(Cl)c2)N1` [Compound 153, (S)-[(R)-5,5-dimethyl-2-pyrrolidinyl](m-chlorophenyl)methanol], the Emax at 10 µM in the assay with L6-myotubes [1] (setting [5]) was 25 to 50%; in the assay with L6-myotubes [2] (setting [6]), less than 25%.

For `CO[C@H]1CC[C@@H](CCNC[C@H](O)c2cccc(F)c2)CC1` [Compound 237, (R)-1-(m-fluorophenyl)-2-{2-[(1s,4S)-4-methoxycyclohexyl]ethylamino}-1-ethanol], the values for the Emax at 10 µM with L6-myotubes [1] (setting [3]) and in the assay with L6-myotubes [2] (setting [4]) were 50 to 75% and less than 25%, respectively.

Take `CC(=O)N[C@H]1CC[C@H](C[C@@H]2CC[C@H]([C@H](O)c3cccc(F)c3)N2)CC1` [Compound 485]: the Emax at 10 µM with L6-myotubes [1] (setting [3]) is 50 to 75%; in the assay on L6-myotubes [2] (setting [4]) it was less than 25%.

On to `COCC12CCC([C@@H](O)c3cccc(F)c3)(CC1)N2` [Compound 329, (S)-(m-fluorophenyl){4-(methoxymethyl)-7-azabicyclo[[2.2.1]]hept-1-yl}methanol], for which the Emax at 10 µM with L6-myotubes [1] (setting [3]) is 25 to 50%; in the assay on L6-myotubes [2] (setting [4]) it was less than 25%.

Regarding `CC(=O)N[C@H]1CC[C@H](CC(C)(C)NC[C@H](O)c2cccc(F)c2)CC1` [Compound 383], the Emax at 10 µM is greater than 75% in the assay with L6-myotubes [1] (setting [3]) and 25 to 50% in the assay with L6-myotubes [2] (setting [4]).

With `CC(C)(C)NC[C@H](O)c1ccc(F)c(N)c1F` [Compound 149, (R)-1-(3-amino-2,4-difluorophenyl)-2-(tert-butylamino)-1-ethanol], the Emax at 10 µM in the assay with L6-myotubes [1] (setting [5]) is greater than 75%; in the assay with L6-myotubes [2] (setting [6]), 25 to 50%.

In the case of `O[C@@H](CNCCC[C@H]1CC[C@H](O)CC1)c1cccc(F)c1` [Compound 303, (R)-1-(m-fluorophenyl)-2-{3-[(1r,4S)-4-hydroxycyclohexyl]propylamino}-1-ethanol], the Emax at 10 µM is 50 to 75% in the assay on L6-myotubes [1] (setting [3]) and less than 25% in the assay on L6-myotubes [2] (setting [4]).

On to `O=C(N[C@H]1CC[C@@H](CNC[C@H](O)c2cncc(F)c2)CC1)c1ccccc1` [Compound 318], for which the Emax at 10 µM in the assay on L6-myotubes [1] (setting [3]) was 50 to 75%; with L6-myotubes [2] (setting [4]), less than 25%.

With `CO[C@H]1CC[C@H](CCNC[C@H](O)c2cccc(F)c2)CC1` [Compound 224, (R)-1-(m-fluorophenyl)-2-{2-[(1r,4R)-4-methoxycyclohexyl]ethylamino}-1-ethanol], the Emax at 10 µM is 25 to 50% in the assay on L6-myotubes [1] (setting [3]) and less than 25% in the assay with L6-myotubes [2] (setting [4]).

As to `CC1(C)CC[C@H]([C@H](O)c2cccc(O)c2)N1` [Compound 112, m-{(R)-[(R)-5,5-dimethyl-2-pyrrolidinyl] hydroxymethyl}phenol], the Emax at 10 µM with L6-myotubes [1] (setting [5]) is greater than 75%; in the assay on L6-myotubes [2] (setting [6]), less than 25%.

Regarding `Cc1ncccc1[C@@H](O)CNC(C)(C)C[C@H]1CC[C@@H](NS(C)(=O)=O)CC1` [Compound 437, (R)-2-{1,1-dimethyl-2-[(1s,4S)-4-(mesylamino)cyclohexyl]ethylamino}-1-(2-methyl-3-pyridyl)-1-ethanol], the values for the Emax at 10 µM with L6-myotubes [1] (setting [3]) and in the assay on L6-myotubes [2] (setting [4]) were 25 to 50% and less than 25%, respectively.

For the molecule `COC(=O)[C@H]1CC[C@H](CC(C)(C)NC[C@H](O)c2cncc(F)c2)CC1` [Compound 354, methyl (1R,4r)-4-{2-[(R)-2-(5-fluoro-3-pyridyl)-2-hydroxyethylamino]-2-methylpropyl} cyclohexanecarboxylate], the Emax at 10 µM was 50 to 75% in the assay on L6-myotubes [1] (setting [3]) and less than 25% in the assay with L6-myotubes [2] (setting [4]).

As for `CC(C)(NC[C@H](O)c1cccc(F)c1)[C@H]1CC[C@H](NS(C)(=O)=O)CC1` [Compound 385, (R)-1-(m-fluorophenyl)-2-{1-methyl-1-[(1r,4R)-4-(mesylamino)cyclohexyl]ethylamino}-1-ethanol], the Emax at 10 µM with L6-myotubes [1] (setting [3]) is 50 to 75%; in the assay with L6-myotubes [2] (setting [4]), less than 25%.

Consider `CC12CC(C1)[C@H]([C@@H](O)c1cncc(F)c1)N2` [Compound 222, (S)-{(R)-1-methyl-2-azabicyclo[[2.1.1]]hex-3-yl}(5-fluoro-3-pyridyl)methanol], for which the Emax at 10 µM in the assay with L6-myotubes [1] (setting [3]) and in the assay with L6-myotubes [2] (setting [4]) was less than 25% each time.

As for `COc1ccc(CCC23CCC([C@@H](O)c4cccc(F)c4)(CC2)N3)cc1` [Compound 539, (S)-(m-fluorophenyl){4-[2-(p-methoxyphenyl)ethyl]-7-azabicyclo[[2.2.1]]hept-1-yl}methanol], the Emax at 10 µM in the assay on L6-myotubes [1] (setting [3]) and in the assay with L6-myotubes [2] (setting [4]) was less than 25% throughout.

Take `O[C@@H](CNCC[C@H]1CC[C@@H](O)CC1)c1cccc(F)c1` [Compound 297, (R)-1-(m-fluorophenyl)-2-{2-[(1s,4S)-4-hydroxycyclohexyl]ethylamino}-1-ethanol]: the Emax at 10 µM was 50 to 75% in the assay with L6-myotubes [1] (setting [3]) and less than 25% in the assay with L6-myotubes [2] (setting [4]).

Consider `CC(C)(C)NC[C@H](O)c1ccc(F)c(O)c1` [Compound 84, (R)-2-(tert-butylamino)-1-(4-fluoro-3-hydroxyphenyl)-1-ethanol], for which the Emax at 10 µM in the assay on L6-myotubes [1] (setting [5]) was greater than 75%; in the assay with L6-myotubes [2] (setting [6]), 50 to 75%.

Consider `CCC[C@H]1CCC[C@H]([C@@H](O)c2cccc(F)c2)N1` [Compound 70], for which the values for the Emax at 10 µM with L6-myotubes [1] (setting [5]) and in the assay on L6-myotubes [2] (setting [6]) were 50 to 75% and less than 25%, respectively.

As to `CCC[C@H]1CCC[C@H]([C@@H](O)c2ccccc2F)N1` [Compound 106, (S)-[(2R,6S)-6-propyl-2-piperidyl](o-fluorophenyl)methanol], the Emax at 10 µM in the assay on L6-myotubes [1] (setting [5]) was 25 to 50%; with L6-myotubes [2] (setting [6]), less than 25%.

With `Oc1ccc(C(O)CNC2CCCC2)cc1` (centres unmarked) [Compound 10, p-[2-(cyclopentylamino)-1-hydroxyethyl]phenol], the Emax at 10 µM with L6-myotubes [1] (setting [5]) is 50 to 75%; in the assay with L6-myotubes [2] (setting [6]), less than 25%.

For the molecule `CC(C)(CC[C@H]1CC[C@H](NS(C)(=O)=O)CC1)NC[C@H](O)c1cncc(F)c1` [Compound 362, (R)-2-{1,1-dimethyl-3-[(1r,4R)-4-(mesylamino)cyclohexyl]propylamino}-1-(5-fluoro-3-pyridyl)-1-ethanol], the Emax at 10 µM was 50 to 75% in the assay with L6-myotubes [1] (setting [3]) and less than 25% in the assay with L6-myotubes [2] (setting [4]).

With `CO[C@H]1CC[C@@H](CNC[C@H](O)c2cccc(F)c2)CC1` [Compound 245, (R)-1-(m-fluorophenyl)-2-({[(1s,4S)-4-methoxycyclohexyl]methyl}amino)-1-ethanol], the figures for the Emax at 10 µM in the assay with L6-myotubes [1] (setting [3]) and in the assay on L6-myotubes [2] (setting [4]) were 50 to 75% and less than 25%, respectively.

For `CC12CC(C1)[C@@H]([C@@H](O)c1cccc(Cl)c1)N2` [Compound 207], the results for the Emax at 10 µM in the assay with L6-myotubes [1] (setting [3]) and in the assay on L6-myotubes [2] (setting [4]) were 25 to 50% and less than 25%, respectively.

`CC(C)(CC[C@H]1CC[C@H](N)CC1)NC[C@H](O)c1cncc(F)c1` [Compound 358]: the Emax at 10 µM in the assay on L6-myotubes [1] (setting [3]) was 25 to 50%; in the assay on L6-myotubes [2] (setting [4]), less than 25%.

`O[C@@H](c1cncc(F)c1)C12CCC(COCc3ccc(OC(F)(F)F)cc3)(CC1)N2` [Compound 489, (S)-(5-fluoro-3-pyridyl)(4-{[(p-trifluoromethoxyphenyl)methoxy]methyl}-7-azabicyclo[[2.2.1]]hept-1-yl)methanol]: the Emax at 10 µM with L6-myotubes [1] (setting [3]) and in the assay on L6-myotubes [2] (setting [4]) was less than 25% in each case.

Take `CC(C)(C)NC[C@H](O)c1ncccc1Cl` [Compound 146, (S)-2-(tert-butylamino)-1-(3-chloro-2-pyridyl)-1-ethanol]: the results for the Emax at 10 µM in the assay on L6-myotubes [1] (setting [5]) and in the assay with L6-myotubes [2] (setting [6]) were 25 to 50% and less than 25%, respectively.

With `CCCC(C)NCC(O)c1ccc(Cl)c(O)c1` (centres unmarked) [Compound 35, 1-(4-chloro-3-hydroxyphenyl)-2-(1-methylbutylamino)-1-ethanol], the values for the Emax at 10 µM in the assay with L6-myotubes [1] (setting [5]) and in the assay on L6-myotubes [2] (setting [6]) were greater than 75% and less than 25%, respectively.

Consider `CN([C@H]1CC[C@H](CC(C)(C)NC[C@H](O)c2cncc(F)c2)CC1)S(C)(=O)=O` [Compound 521, (R)-2-{1,1-dimethyl-2-[(1r,4R)-4-(N-mesyl-N-methylamino)cyclohexyl]ethylamino}-1-(5-fluoro-3-pyridyl)-1-ethanol], for which the results for the Emax at 10 µM with L6-myotubes [1] (setting [3]) and in the assay with L6-myotubes [2] (setting [4]) were 50 to 75% and less than 25%, respectively.

On to `COC(=O)[C@H]1CC[C@@H](C(C)(C)NC[C@H](O)c2cccc(F)c2)CC1` [Compound 328, (1S,4s)-8-[(R)-2-(m-fluorophenyl)-2-hydroxyethylamino]-7-methoxy-p-menthan-7-one], for which the Emax at 10 µM was greater than 75% in the assay on L6-myotubes [1] (setting [3]) and less than 25% with L6-myotubes [2] (setting [4]).

On to `CO[C@H]1CC[C@H](C[C@]2(C)CC[C@H]([C@H](O)c3cccc(F)c3)N2)CC1` [Compound 364, (R)-[(2R,5S)-5-methyl-5-{[(1r,4S)-4-methoxycyclohexyl]methyl}-2-pyrrolidinyl] (m-fluorophenyl)methanol], for which the results for the Emax at 10 µM in the assay with L6-myotubes [1] (setting [3]) and in the assay on L6-myotubes [2] (setting [4]) were greater than 75% and 50 to 75%, respectively.

With `O[C@@H](CNCCC[C@H]1CC[C@H](OCc2ccccc2)CC1)c1cccc(F)c1` [Compound 278, (R)-1-(m-fluorophenyl)-2-{3-[(1r,4S)-4-(benzyloxy)cyclohexyl]propylamino}-1-ethanol], the results for the Emax at 10 µM in the assay on L6-myotubes [1] (setting [3]) and in the assay with L6-myotubes [2] (setting [4]) were 25 to 50% and less than 25%, respectively.
